PubChem BioAssay AID2060909 (Molecular Pharmacology Branch, DTP, NCI, 2025)

Test system: 362531-283-R-J2-PDC complex spheroid viability
Assay: Anticancer human tumor 362531-283-R-J2-PDC patient-derived colon adenocarcinoma cell line growth inhibition [RAS]
Conditions: for viability, T/C: stronger effect = lower value
From the text: RAS pathway inhibitors in Combinations in Complex Spheroids
A high-throughput screen of multi-cell type tumor spheroids was designed to identify active combinations of RAS pathway inhibitors and targeted small molecules. Complex spheroids include a stromal component modeled by human endothelial cells (HUVEC) and fibroblasts modeled by human mesenchymal stem cells (MSCs). The concentration ranges selected for each drug and investigational agent were based upon clinically achievable concentrations if the clinical Cmax of the agent was known.
Compounds. The drugs and investigational agents: abemaciclib (NSC768073), cobimetinib (NSC768068), divarasib (GDC6063, NSC841802), docetaxel (NSC628503), GDC-1971 (RLY-1971, NSC841576), gemcitabine (NSC613327), inavolisib (NSC800729), ipatasertib (NSC767898), KB-0742 (NSC834161), MRTX-1133 (NSC836407), osimertinib (NSC779217), RMC-4630 (NSC839698), RMC-6236 (NSC851965), RMC-6291 (NSC852671), Ro-3306 (NSC812927), sapanisertib (NSC764658), SN-38 (NSC673596), staurosporine (NSC755774), SY5609 (NSC837396), and tovorafenib (DAY101, NSC766906), were obtained from the National Cancer Institute (NCI) Developmental Therapeutics Program Chemical Repository. The FDA-approved anticancer drug set is available from the NCI Developmental Therapeutics Program. […] The stock solutions were prepared in dimethyl sulfoxide (DMSO, Sigma-Aldrich, St. Louis, MO, cat. D2650) at 800-fold the tested concentration and stored at -70 degrees C prior to their use. All drugs and investigational agents were tested over a range starting from a high concentration at or near the clinical Cmax and decreasing in half-log increments. If the clinical Cmax for an agent had not been determined, the highest concentration tested was 10 microM.
Cell Culture. All cells were maintained in an incubator at 37 degrees C and 5% CO2 with 95% humidity. The PDC lines were cultured according to standard operating procedures established by the NCI PDMR. All PDCs were thawed and cultured in Matrigel-coated flasks prepared with a working solution of 1X Ham's F-12 nutrient mix, without supplementation (Invitrogen, Waltham, MA, cat. 11765054), 100 U/mL penicillin-streptomycin (Invitrogen, cat. 15140122), and 2.5% Matrigel (Corning Inc., Corning, NY, cat. 354248) for the first three passages. The 362531-283-R-J2-PDC and 782815-120-R-J1-PDC lines were cultured in 6C/Colon 1B media, which includes advanced DMEM/F-12 (Thermo Fisher Scientific, cat. 12634028), 10 mM HEPES (Thermo Fisher Scientific, cat. 15630080), 1X GlutaMAX supplement (Thermo Fisher Scientific, cat. 35050061), 0.1 mg/mL primocin (InvivoGen, San Diego, CA, cat. ant-pm-2), 10% defined fetal bovine serum, heat inactivated (HyClone Laboratories Inc., Logan, UT, cat. SH30070.03HI), 50% L-WRN conditioned media (ATCC, cat. CRL-3276), 1.25 mM N-Acetyl-L-cysteine (Sigma-Aldrich, cat. A9165), 10 mM nicotinamide (Sigma-Aldrich, cat. N0636), 1X B-27 supplement (Thermo Fisher Scientific, cat. 17504044), 1X N-2 supplement (Thermo Fisher Scientific, cat. 17502048), 50 ng/mL human EGF (Thermo Fisher Scientific, cat. PHG0311), and 10 microM Y-27632 dihydrochloride (Tocris Bioscience, cat. 1254). The K12877-001-R-J1-PDC line was cultured in 6I media, which includes all 6C/Colon 1B media plus 10 ng/mL human FGF-10 (PeproTech, cat. 100-26), 1 ng/mL human FGF-2 (PeproTech, cat. 100-18B), 1 µM prostaglandin E2 (Tocris Bioscience, cat. 2296), […] hydrocortisone (Sigma-Aldrich, cat. H4001), and […] bovine insulin (Sigma-Aldrich, cat. I6634). The K86415-001-R-J1-PDC line was cultured in 6D media, which includes all 6C/Colon 1B media components minus the L-WRN conditioned media. The 485176-168-R4-J1-PDC was cultured in PANC media, which includes all 6C/Colon 1B media plus 100 ng/mL human FGF-10 (PeproTech, cat. 100-26), 500 nM SB-431542 (Selleckchem, cat. S1067), and 10 nM gastrin (Tocris Bioscience, cat. 3006). […]

[1] = curve of first compound, second compound 0.000949 µM
[2] = curve of first compound, second compound 0.003 µM
[3] = curve of first compound, second compound 0.00949 µM
[4] = curve of first compound, second compound 0.03 µM
[5] = curve of first compound, second compound 0.0949 µM
[6] = curve of first compound, second compound 0.3 µM
[7] = second compound 0.000949 µM, first compound 0.0316 µM
[8] = second compound 0.000949 µM, first compound 0.1 µM
[9] = second compound 0.000949 µM, first compound 0.316 µM
[10] = second compound 0.000949 µM, first compound 1 µM
[11] = second compound 0.003 µM, first compound 0.0316 µM
[12] = second compound 0.003 µM, first compound 0.1 µM
[13] = second compound 0.003 µM, first compound 0.316 µM
[14] = second compound 0.003 µM, first compound 1 µM
[15] = second compound 0.00949 µM, first compound 0.0316 µM
[16] = second compound 0.00949 µM, first compound 0.1 µM
[17] = second compound 0.00949 µM, first compound 0.316 µM
[18] = second compound 0.00949 µM, first compound 1 µM
[19] = second compound 0.03 µM, first compound 0.0316 µM
[20] = second compound 0.03 µM, first compound 0.1 µM
[21] = second compound 0.03 µM, first compound 0.316 µM
[22] = second compound 0.03 µM, first compound 1 µM
[23] = second compound 0.0949 µM, first compound 0.0316 µM
[24] = second compound 0.0949 µM, first compound 0.1 µM
[25] = second compound 0.0949 µM, first compound 0.316 µM
[26] = second compound 0.0949 µM, first compound 1 µM
[27] = second compound 0.3 µM, first compound 0.0316 µM
[28] = second compound 0.3 µM, first compound 0.1 µM
[29] = second compound 0.3 µM, first compound 0.316 µM
[30] = second compound 0.3 µM, first compound 1 µM
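Further: spheroids exposed to the agents for 7 days before readout.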
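Wherever viability, T/C is given: luminescence viability as percent of DMSO vehicle control wells.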

With `CC(=O)OC12COC1CC(O)C1(C)C(=O)C(O)C3=C(C)C(OC(=O)C(O)C(NC(=O)OC(C)(C)C)c4ccccc4)CC(O)(C(OC(=O)c4ccccc4)C21)C3(C)C` (stereo unspecified) + CCn1c(-c2cc(N3CCN(C)CC3)cnc2C(C)OC)c2c3cc(ccc31)-c1csc(n1)CC(NC(=O)C1CC1C)C(=O)N1CCCC(N1)C(=O)OCC(C)(C)C2 the IC50 [1] was 214 nM, the IC50 [2] was 215 nM and the IC50 [3] was 192 nM. The IC50 [4] was 164 nM, the IC50 [5] was 137 nM and the IC50 [6] was less than 31.6 nM. The viability, T/C [7] was 92.9%, the viability, T/C [8] was 95.2% and the viability, T/C [9] was 27.5%. For the same molecule, the viability, T/C [10] was 16.7%, the viability, T/C (second compound 0.000949 µM, first compound 3.16 µM) was 18.1% and the viability, T/C (second compound 0.000949 µM, first compound 10 µM) was 31.9%. The viability, T/C [11] was 103%, the viability, T/C [12] was 92.7% and the viability, T/C [13] was 28.7%. The viability, T/C [14] was 13.6%, the viability, T/C (second compound 0.003 µM, first compound 3.16 µM) was 19.1% and the viability, T/C (second compound 0.003 µM, first compound 10 µM) was 19.9%. The viability, T/C [15] was 94.2%, the viability, T/C [16] was 91% and the viability, T/C [17] was 18.8%. For the same molecule, the viability, T/C [18] was 12.9%, the viability, T/C (second compound 0.00949 µM, first compound 3.16 µM) was 9.58% and the viability, T/C (second compound 0.00949 µM, first compound 10 µM) was 15.8%. The viability, T/C [19] was 76.8%, the viability, T/C [20] was 77.5% and the viability, T/C [21] was 14.2%. For the same molecule, the viability, T/C [22] was 7.82%, the viability, T/C (second compound 0.03 µM, first compound 3.16 µM) was 8.32% and the viability, T/C (second compound 0.03 µM, first compound 10 µM) was 11.6%. It also gave a viability, T/C [23] of 68.7%, a viability, T/C [24] of 65.5% and a viability, T/C [25] of 9.07%. It also gave a viability, T/C [26] of 7.86%, a viability, T/C (second compound 0.0949 µM, first compound 3.16 µM) of 8.53% and a viability, T/C (second compound 0.0949 µM, first compound 10 µM) of 7.69%. The viability, T/C [27] was 43.2%, the viability, T/C [28] was 20.1% and the viability, T/C [29] was 7.36%. For the same molecule, the viability, T/C [30] was 4.87%, the viability, T/C (second compound 0.3 µM, first compound 3.16 µM) was 5.33% and the viability, T/C (second compound 0.3 µM, first compound 10 µM) was 4.75%.
`Nc1ccn(C2OC(CO)C(O)C2(F)F)c(=O)n1` (stereo unspecified) + CCn1c(-c2cccnc2C(C)OC)c2c3cc(ccc31)N1CCOC(CC(NC(=O)C(C(C)C)N(C)C(=O)C3(F)CCN(C(=O)C#CC(C)(C)N(C)C)CC3)C(=O)N3CCCC(N3)C(=O)OCC(C)(C)C2)C1 was tested, and the IC50 [1] was 169 nM, the IC50 [2] was 153 nM and the IC50 [3] was 177 nM. The IC50 [4] was 189 nM, the IC50 [5] was 132 nM and the IC50 [6] was 163 nM. The viability, T/C (second compound 0.000949 µM, first compound 0.00316 µM) was 100%, the viability, T/C (second compound 0.000949 µM, first compound 0.01 µM) was 95.5% and the viability, T/C [7] was 69.5%. For the same molecule, the viability, T/C [8] was 77.3%, the viability, T/C [9] was 22.2% and the viability, T/C [10] was 31.3%. It also gave a viability, T/C (second compound 0.003 µM, first compound 0.00316 µM) of 103%, a viability, T/C (second compound 0.003 µM, first compound 0.01 µM) of 92.9% and a viability, T/C [11] of 77.6%. For the same molecule, the viability, T/C [12] was 68.5%, the viability, T/C [13] was 22.9% and the viability, T/C [14] was 33.2%. The viability, T/C (second compound 0.00949 µM, first compound 0.00316 µM) was 103%, the viability, T/C (second compound 0.00949 µM, first compound 0.01 µM) was 93.2% and the viability, T/C [15] was 73.4%. It also gave a viability, T/C [16] of 77.4%, a viability, T/C [17] of 19.2% and a viability, T/C [18] of 25.5%. For the same molecule, the viability, T/C (second compound 0.03 µM, first compound 0.00316 µM) was 111%, the viability, T/C (second compound 0.03 µM, first compound 0.01 µM) was 83.5% and the viability, T/C [19] was 86.8%. The viability, T/C [20] was 82.2%, the viability, T/C [21] was 20.1% and the viability, T/C [22] was 27.6%. The viability, T/C (second compound 0.0949 µM, first compound 0.00316 µM) was 100%, the viability, T/C (second compound 0.0949 µM, first compound 0.01 µM) was 91.7% and the viability, T/C [23] was 69.5%. It also gave a viability, T/C [24] of 69.6%, a viability, T/C [25] of 19.7% and a viability, T/C [26] of 26.8%. It also gave a viability, T/C (second compound 0.3 µM, first compound 0.00316 µM) of 96.2%, a viability, T/C (second compound 0.3 µM, first compound 0.01 µM) of 90% and a viability, T/C [27] of 73.3%. For the same molecule, the viability, T/C [28] was 69.2%, the viability, T/C [29] was 23.2% and the viability, T/C [30] was 24.2%.
With `C=CC(=O)N1CCN(c2nc(OCC3CCCN3C)nc3c(F)c(-c4nc(N)cc(C)c4C(F)(F)F)c(Cl)cc23)C(C)C1` (stereo unspecified) the viability, T/C (compound 0.00316 µM) was 104% [middle of 12 runs], the viability, T/C (compound 0.01 µM) was 108% [middle of 12 runs] and the viability, T/C (compound 0.0316 µM) was 102% [middle of 12 runs]. The viability, T/C (compound 0.1 µM) was 102% [middle of 12 runs], the viability, T/C (compound 0.316 µM) was 102% [middle of 12 runs] and the IC50 (compound alone, run of 07/15/2024) was greater than 1000 nM. For the same molecule, the IC50 (curve of compound) was greater than 1000 nM.
